Laboratory results reported in US8158804B2, “Chelating agents” (GE Healthcare AS, priority 2007, dated 2012).

How the values were obtained:
[1] = Stability of gadolinium chelates, spectrophotometric (UV absorbance vs pH) method; type: physicochemical; details: chelant with 1 equivalent of gadolinium (III); calculated from UV absorbance as a function of pH
Description: Stabilities of the gadolinium complexes of the chelates were measured by a spectrophotometric method using the principle that there is a change in UV absorbance of these compounds as the hydroxyl group on the pyridinone ring deprotonates. There is a significant decrease in the wavelength of the UV maximum as the proton is removed. The UV absorbance of the chelants at different pH's was determined to measure the UV absorbance at different degrees of protonation. The measurements were then repeated in the presence of 1 equivalent of gadolinium (III) and the effect on the UV absorbtion as a function of pH measured. A software program was used to analyze the data and calculate the affinity of the chelates for gadolinium.

[2] = Reference 1; cited from earlier work
[3] = Measurement of longitudinal relaxivity (T1 by inversion recovery method); type: physicochemical
Description: T1 was measured by the inversion recovery method as described by Timothy D. W. Claridge, in “High-Resolution NMR Techniques in Organic Chemistry” Pergamon Amsterdam 1999, 26-30.

[4] = Solubility of gadolinium chelates in water by HPLC analysis; type: physicochemical; details: aqueous solution at 20° C.; for Water solubility of chelate: equilibration by shaking for a few hours
Description: The solubility of the gadolinium chelates in table 2 was measured by HPLC analysis of the concentrations of compound in aqueous solutions at 20° C. after equilibration by shaking for a few hours. […] This indicated the saturation point of the solution.

| Molecule | Gd Chelate STABILITY CONSTANT (LogKGdL) [1] | Water solubility of chelate [4] [µg/mL] | other results |
| --- | --- | --- | --- |
| O=C(NCCN(CCNC(=O)c1occc(=O)c1O)CCNC(=O)c1occc(=O)c1O)c1occc(=O)c1O [Standard, reference compound] | 18.650 |  | pGd [2]: 19.27 |
| Bis aquo tris(3-hydroxy-1-(2-methoxyethyl)-4-oxo-4H-pyridin-2yl-)carboxyaminoeth-2-yl)amine gadolinium (III) salt [Example 1e] |  | <500 | r1 at 10 MHz ([3]; 10 MHz): 9.7 mM⁻¹ s⁻¹; r1 at 20 MHz ([3]; 20 MHz): 11.6 mM⁻¹ s⁻¹; r1 at 60 MHz ([3]; 60 MHz): 9.5 mM⁻¹ s⁻¹ |
| Bis aquo tris((3-hydroxy-1-(2,3,4,5,6-pentahydroxyhexane)-4-oxo-4H-pyridin-2yl-]carboxyaminoeth-2-yl)amine gadolinium (III) [Example 8] |  | >200000 |  |
| Bis aquo tris((3-hydroxy-1-(2,3,4-trihydroxybutane)-4-oxo-4H-pyridin-2yl-)carboxyaminoeth-2-yl)amine gadolinium (III) salt [Example 7] |  |  | Water solubility of chelate (kinetic solubility) ([4]; kinetic solubility, some compound precipitates on standing): ~10 mg/ml* *Kinetic solubility, but some compound precipitates on standing |
| Bis aquo tris((3-hydroxy-1-(2-(2-hydroxyethoxy)ethyl)-4-oxo-4H-pyridin-2yl-)carboxyaminoeth-2-yl)amine gadolinium (III) salt [Example 5] |  | <1000 |  |

Continued, in another order:

| Gd Chelate STABILITY CONSTANT (LogKGdL) [1] | Water solubility of chelate [4] [µg/mL] | Molecule | other results |
| --- | --- | --- | --- |
| 21.287 |  | COCCn1ccc(=O)c(O)c1C(=O)NCC1CC(CNC(=O)c2c(O)c(=O)ccn2CCOC)CC(CNC(=O)c2c(O)c(=O)ccn2CCOC)C1 (stereo not drawn) [Example 3, Cis, cis 1,3,5,tris((3-hydroxy-1-(2-methoxyethyl)-4-oxo-4H-pyrid-2yl-)carboxyaminomethyl)-cyclohexane] |  |
| 15.716 |  | COCCn1ccc(=O)c(O)c1C(=O)NCCCC(CCCNC(=O)c1c(O)c(=O)ccn1CCOC)(CCCNC(=O)c1c(O)c(=O)ccn1CCOC)NC(=O)c1ccccc1 [Example 11, Tris((3-hydroxy-1-(2-methoxyethyl)-4-oxo-4H-pyridin-2-yl)-carboxyaminopropyl)-phenylcarboxyaminomethane] |  |
| 18.284 |  | O=C(NC(CCCNC(=O)c1c(O)c(=O)ccn1CCO)(CCCNC(=O)c1c(O)c(=O)ccn1CCO)CCCNC(=O)c1c(O)c(=O)ccn1CCO)c1ccccc1 [Example 12] |  |
|  | 3400 | Bis aquo tris((3-hydroxy-1-(2,3-dihydroxypropane)-4-oxo-4H-pyrid-2yl-)carboxyaminoeth-2-yl)-amine gadolinium (III) salt [Example 6] |  |
| 17.929 | <500 | Bis aquo tris(-3-hydroxy-1-(2-hydroxyethyl)-4-oxo-4H-pyridin-2yl-)carboxyaminoeth-2-yl)-amine gadolinium (III) salt [Example 4] |  |
